Consider 4 substances from PMC6200594 (ACS infectious diseases, 2018).

The test system of assay [1] is bacterial cell membrane disruption / depolarization. Briefly: Membrane depolarization assay. It is filed as cell-based. The following applies: DiSC3 release.
For assay [2] the test system is unchanged. The settings on record: DiSC3; cited from earlier work.
Assay [3] relates to bacterial cell membrane permeability. The following applies: PI; cited from earlier work.
For another assay, the system named is Ac2K-D-Ala-D-Lac. The following applies: remodeled peptidoglycan precursor; cited from earlier work.

Where two headings read alike, the source gives them in different places.

For the substance CBP-vancomycin [compound 3], the “membrane depolarization activity (in words)” value in assay [1] is “also observed”. Turning to oritavancin, the “membrane depolarization activity (in words)” value in assay [2] is listed as “observed”. Moreover, in assay [3], the “induced cell membrane permeability (in words)” value was “activity in both assays has been observed”.

With telavancin, the “membrane depolarization activity (in words)” value in assay [2] is “observed”. Also, the “induced cell membrane permeability (in words)” value in assay [3] is given as “activity in both assays has been observed”. As for vancomycin [compound 1], the “decrease in binding affinity on replacing ᴅ-Ala-ᴅ-Ala with ᴅ-Ala-ᴅ-Lac” value in the assay with Ac2K-D-Ala-D-Lac is on record as 1,000 fold.
